Experimental data: article PMC10247784, “Physiological activation of human and mouse bitter taste receptors by bile acids” (Communications Biology, 2023)
Read-outs that look alike come from different tables or passages of the source.

Molecular target: T1, mouse Tas2r117 (Mus musculus, UniProt Q7M715)
T1 construct: expressed in transfected cells; host or cells: HEK293T-Gα16gust44
T1 sequence (Q7M715 1-330): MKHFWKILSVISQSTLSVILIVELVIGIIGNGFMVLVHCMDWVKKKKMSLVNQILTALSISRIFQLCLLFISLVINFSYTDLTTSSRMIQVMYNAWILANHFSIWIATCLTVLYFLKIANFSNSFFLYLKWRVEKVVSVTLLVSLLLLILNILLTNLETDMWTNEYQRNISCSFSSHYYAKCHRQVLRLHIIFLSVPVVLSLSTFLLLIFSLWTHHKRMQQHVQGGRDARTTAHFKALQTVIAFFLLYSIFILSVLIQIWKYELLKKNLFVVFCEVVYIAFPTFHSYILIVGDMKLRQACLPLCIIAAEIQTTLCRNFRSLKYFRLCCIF
Experiment: Calcium imaging assay (FLIPR), HEK293T-Gα16gust44 cells transfected with mouse Tas2r117
Assay type: cell-based
Description: This set of bile acids was chosen because of their commercial availability in high purities, their diversity within the class of bile acids and their previous detection and quantitation in human blood. Stock solutions were prepared in DMSO.
As basal growth medium for the HEK293T-Gα16gust44 cell line[17],[59] served Dulbecco’s modified eagle medium (DMEM) (Thermo Fisher Scientific, Darmstadt, Germany) supplemented with 10 % fetal bovine serum (Sigma-Aldrich, Steinheim, Germany), 2 mM L-glutamine (Sigma-Aldrich, Steinheim, Germany), 100 units/ml penicillin (Sigma Aldrich, Steinheim, Germany) and 100 µg/ml streptomycin (Sigma Aldrich, Steinheim, Germany). Growth conditions were 37 °C, 5 % CO2 and saturated air-humidity[60].
HEK293T-Gα16gust44 cells were seeded on poly-D-lysine (10 µg/ml) coated 96-well plates to reach a confluence of 40-60 % the next day. For transient transfection 150 ng of plasmid DNA containing the receptor of interest and 0.3 µl lipofectamine 2000 (Thermo Fisher Scientific, Darmstadt, Germany) per well were used and transfection took place according to the manual of lipofectamine 2000. […] The empty vector DNA (mock) was transfected as negative control[14],[41].
Cells were loaded using the calcium-sensitive fluorescent dye Fluo-4-AM (Abcam, Cambridge, Great Britain) in the presence of 2.5 mM probenecid (Sigma-Aldrich, Steinheim, Germany) the day after transfection[13],[41]. 1 h after loading, cells were washed with C1 buffer using a BioTek Cell Washer, incubated in the dark for half an hour and washed again. For automated agonist application and measurement of fluorescence changes, a FLIPR^TETRA device (Molecular Devices, San José, United States) was used. Viability of cells was tested by application of 100 nM Somatostatin 14 (Bachem, Bubendorf, Switzerland)[42].
Measured data were negative control corrected by subtracting the signal of the mock-transfected cells and exported to Microsoft Excel using the FLIPR software ScreenWorks 4.2. In Microsoft Excel software, standardization of maximum fluorescence intensities to the basal fluorescence and normalization to the buffer-only control was done to calculate the relative fluorescence changes (ΔF/F).
Initial screening experiments performed in duplicate wells were confirmed by at least one replication and representative traces were selected for display. All dose-response relationships were determined by three independent experiments (biological replicates) performed in duplicates (technical replicates). Threshold concentrations, defined as lowest substance concentrations leading to statistically significant elevated fluorescence changes in receptor-transfected cells compared with empty vector-transfected cells, were determined using SigmaPlot with Student’s t-test to evaluate statistical significance (p < 0.01).

`C[C@H](CCC(=O)O)[C@H]1CC[C@H]2[C@@H]3[C@H](O)C[C@@H]4C[C@H](O)CC[C@]4(C)[C@H]3C[C@H](O)[C@]12C` [Cholic Acid, cholic acid] gave an EC50 of 20.6 ± 5.1 µM, an RLU of 487.07 RLU and an RLU (Time (s) 0, sheet Tas2r117, time trace) of 0 RLU. It also gave an RLU (Time (s) 2, sheet Tas2r117, time trace) of 4.604 RLU, an RLU (Time (s) 4, sheet Tas2r117, time trace) of 10.2904 RLU and an RLU (Time (s) 6, sheet Tas2r117, time trace) of -0.8806 RLU. The RLU (Time (s) 8, sheet Tas2r117, time trace) was 6.861 RLU, the RLU (Time (s) 12, sheet Tas2r117, time trace) was -14.1517 RLU and the RLU (Time (s) 14, sheet Tas2r117, time trace) was 7.665 RLU. It also gave an RLU (Time (s) 16, sheet Tas2r117, time trace) of -9.341 RLU, an RLU (Time (s) 18, sheet Tas2r117, time trace) of -12.0783 RLU and an RLU (Time (s) 18.797, sheet Tas2r117, time trace) of -24.6076 RLU. For the same molecule, the RLU (Time (s) 20.797, sheet Tas2r117, time trace) was -3.383 RLU, the RLU (Time (s) 22.797, sheet Tas2r117, time trace) was 39.9085 RLU and the RLU (Time (s) 24.797, sheet Tas2r117, time trace) was 65.6016 RLU. It also gave an RLU (Time (s) 26.797, sheet Tas2r117, time trace) of 75.6489 RLU, an RLU (Time (s) 28.797, sheet Tas2r117, time trace) of 128.888 RLU and an RLU (Time (s) 30.797, sheet Tas2r117, time trace) of 168.759 RLU. For the same molecule, the RLU (Time (s) 32.797, sheet Tas2r117, time trace) was 221.976 RLU, the RLU (Time (s) 34.797, sheet Tas2r117, time trace) was 270.035 RLU and the RLU (Time (s) 36.797, sheet Tas2r117, time trace) was 288.662 RLU. It also gave an RLU (Time (s) 38.797, sheet Tas2r117, time trace) of 310.785 RLU, an RLU (Time (s) 40.797, sheet Tas2r117, time trace) of 342.959 RLU and an RLU (Time (s) 42.797, sheet Tas2r117, time trace) of 363.04 RLU. It also gave an RLU (Time (s) 44.797, sheet Tas2r117, time trace) of 380.411 RLU, an RLU (Time (s) 46.797, sheet Tas2r117, time trace) of 395.355 RLU and an RLU (Time (s) 48.797, sheet Tas2r117, time trace) of 398.151 RLU. For the same molecule, the RLU (Time (s) 50.797, sheet Tas2r117, time trace) was 423.224 RLU, the RLU (Time (s) 52.797, sheet Tas2r117, time trace) was 441.862 RLU and the RLU (Time (s) 54.797, sheet Tas2r117, time trace) was 446.522 RLU. For the same molecule, the RLU (Time (s) 56.797, sheet Tas2r117, time trace) was 453.199 RLU, the RLU (Time (s) 58.797, sheet Tas2r117, time trace) was 444.318 RLU and the RLU (Time (s) 60.797, sheet Tas2r117, time trace) was 456.236 RLU. For the same molecule, the RLU (Time (s) 62.797, sheet Tas2r117, time trace) was 461.012 RLU, the RLU (Time (s) 64.797, sheet Tas2r117, time trace) was 474.623 RLU and the RLU (Time (s) 66.797, sheet Tas2r117, time trace) was 445.559 RLU. The RLU (Time (s) 70.797, sheet Tas2r117, time trace) was 480.113 RLU, the RLU (Time (s) 72.797, sheet Tas2r117, time trace) was 466.131 RLU and the RLU (Time (s) 74.797, sheet Tas2r117, time trace) was 473.506 RLU. The RLU (Time (s) 76.797, sheet Tas2r117, time trace) was 498.186 RLU, the RLU (Time (s) 78.797, sheet Tas2r117, time trace) was 506.034 RLU and the RLU (Time (s) 80.797, sheet Tas2r117, time trace) was 507.589 RLU. For the same molecule, the RLU (Time (s) 82.797, sheet Tas2r117, time trace) was 514.994 RLU, the RLU (Time (s) 84.797, sheet Tas2r117, time trace) was 484.679 RLU and the RLU (Time (s) 86.797, sheet Tas2r117, time trace) was 500.585 RLU. The RLU (Time (s) 88.797, sheet Tas2r117, time trace) was 496.095 RLU, the RLU (Time (s) 90.797, sheet Tas2r117, time trace) was 517.962 RLU and the RLU (Time (s) 92.797, sheet Tas2r117, time trace) was 513.104 RLU. It also gave an RLU (Time (s) 94.797, sheet Tas2r117, time trace) of 501.803 RLU, an RLU (Time (s) 96.797, sheet Tas2r117, time trace) of 495.693 RLU and an RLU (Time (s) 98.797, sheet Tas2r117, time trace) of 496.063 RLU. For the same molecule, the RLU (Time (s) 100.797, sheet Tas2r117, time trace) was 476.828 RLU, the RLU (Time (s) 102.797, sheet Tas2r117, time trace) was 478.659 RLU and the RLU (Time (s) 104.797, sheet Tas2r117, time trace) was 493.353 RLU. It also gave an RLU (Time (s) 106.797, sheet Tas2r117, time trace) of 481.214 RLU, an RLU (Time (s) 108.797, sheet Tas2r117, time trace) of 477.549 RLU and an RLU (Time (s) 110.797, sheet Tas2r117, time trace) of 489.03 RLU. The RLU (Time (s) 112.797, sheet Tas2r117, time trace) was 467.178 RLU, the RLU (Time (s) 114.797, sheet Tas2r117, time trace) was 460.468 RLU and the RLU (Time (s) 116.797, sheet Tas2r117, time trace) was 475.775 RLU. It also gave an RLU (Time (s) 118.797, sheet Tas2r117, time trace) of 475.734 RLU, an RLU (Time (s) 120.797, sheet Tas2r117, time trace) of 478.85 RLU and an RLU (Time (s) 122.797, sheet Tas2r117, time trace) of 455.77 RLU. It also gave an RLU (Time (s) 124.797, sheet Tas2r117, time trace) of 448.646 RLU, an RLU (Time (s) 126.797, sheet Tas2r117, time trace) of 473.935 RLU and an RLU (Time (s) 128.797, sheet Tas2r117, time trace) of 443.919 RLU. It also gave an RLU (Time (s) 130.797, sheet Tas2r117, time trace) of 439.491 RLU, an RLU (Time (s) 132.797, sheet Tas2r117, time trace) of 446.634 RLU and an RLU (Time (s) 134.797, sheet Tas2r117, time trace) of 438.919 RLU. For the same molecule, the RLU (Time (s) 136.797, sheet Tas2r117, time trace) was 440.652 RLU, the RLU (Time (s) 137.562, sheet Tas2r117, time trace) was 432.872 RLU and the RLU (Time (s) 143.578, sheet Tas2r117, time trace) was 412.03 RLU. It also gave an RLU (Time (s) 149.578, sheet Tas2r117, time trace) of 376.064 RLU, an RLU (Time (s) 155.578, sheet Tas2r117, time trace) of 372.116 RLU and an RLU (Time (s) 161.578, sheet Tas2r117, time trace) of 346.14 RLU. For the same molecule, the RLU (Time (s) 167.578, sheet Tas2r117, time trace) was 348.952 RLU, the RLU (Time (s) 173.578, sheet Tas2r117, time trace) was 334.535 RLU and the RLU (Time (s) 179.578, sheet Tas2r117, time trace) was 329.157 RLU. It also gave an RLU (Time (s) 191.578, sheet Tas2r117, time trace) of 289.619 RLU, an RLU (Time (s) 197.578, sheet Tas2r117, time trace) of 289.013 RLU and an RLU (Time (s) 209.578, sheet Tas2r117, time trace) of 239.803 RLU. It also gave an RLU (Time (s) 221.578, sheet Tas2r117, time trace) of 142.758 RLU, an RLU (Time (s) 233.578, sheet Tas2r117, time trace) of 144.622 RLU and an RLU (Time (s) 239.578, sheet Tas2r117, time trace) of 165.061 RLU. It also gave an RLU (Time (s) 245.578, sheet Tas2r117, time trace) of 139.32 RLU, an RLU (Time (s) 293.578, sheet Tas2r117, time trace) of 116.805 RLU and an RLU (Time (s) 299.578, sheet Tas2r117, time trace) of 113.227 RLU. It also gave an RLU (Time (s) 305.578, sheet Tas2r117, time trace) of 94.7752 RLU, an RLU (Time (s) 311.578, sheet Tas2r117, time trace) of 118.792 RLU and an RLU (Time (s) 317.578, sheet Tas2r117, time trace) of 98.6072 RLU. For the same molecule, the RLU (Time (s) 323.578, sheet Tas2r117, time trace) was 115.27 RLU, the RLU (Time (s) 329.578, sheet Tas2r117, time trace) was 87.0157 RLU and the RLU (Time (s) 335.578, sheet Tas2r117, time trace) was 73.721 RLU. It also gave an RLU (Time (s) 341.578, sheet Tas2r117, time trace) of 98.5271 RLU, an RLU (Time (s) 347.578, sheet Tas2r117, time trace) of 75.5864 RLU and an RLU (Time (s) 353.578, sheet Tas2r117, time trace) of 82.9151 RLU. For the same molecule, the RLU (Time (s) 359.578, sheet Tas2r117, time trace) was 69.2265 RLU and the “Activation threshold concentration Tas2r117” value (p < 0.01 vs empty vector) was 10 µM.
